Tests used:
[1] = system: OCI-Ly10 tumor cells; test: Human DLBCL xenograft model (OCI-Ly10), single agent and combination; type: in vivo, C.B.-17 SCID female mice; conditions: single agent acalabrutinib 12.5 mg/kg bid po
Protocol: 5×10^6 OCI-Ly10 tumor cells were injected subcutaneously in the right flank of C.B.-17 SCID female mice in a volume of 0.1 mL containing 50% matrigel. Compound 1 was formulated in citrate/phosphate buffer pH 5.0, diluted 1 to 10 with 5% glucose containing 1% w/v Kolliphor HS15, and dosed as a weekly intravenous (iv) administration at a volume of 5 mL/kg at a dose of 103 mg/kg (30 mg/kg API). Acalabrutinib was formulated in 0.5% hydroxypropyl methyl cellulose/0.2% Tween 80, and dosed twice a day (bid) as an oral (po) administration at a volume of 10 mL/kg at a dose of 12.5 mg/kg. Tumor volumes (measured by caliper), animal body weight, and tumor condition were recorded twice weekly for the duration of the study. The tumor volume was calculated using the formula: length (mm) x width (mm)^2×0.52. For efficacy studies, growth inhibition from the start of treatment was assessed by comparison of the differences in tumor volume between control and treated groups. Dosing began when mean tumor size reached approximately 166 mm3.

[2] = system: NCI-H1048 tumor cells; test: Human small cell lung cancer tumor model (NCI-H1048), single agent and combination; type: in vivo, C.B.-17 SCID female mice; conditions: AZD2014 15 mg/kg daily (qd), oral; p<0.05
Protocol: Compound 1 was formulated in citrate/phosphate buffer pH 5.0 containing 4.5% w/v glucose and dosed intravenously (iv) in a volume of 5 ml/kg. AZD2014 was formulated in 0.5% hydroxypropyl methylcellulose/0.1% Tween 80 and dosed oral in a volume of 10 ml/kg 5×10^6 NCI-H1048 tumor cells were injected subcutaneously in the right flank of C.B.-17 SCID female mice in a volume of 0.1 mL containing 50% matrigel. Tumor volume (measured by caliper) was calculated using the formula: length (mm) x width (mm)^2×0.52. For efficacy studies, mice were randomized based on tumor volume and growth inhibition was assessed by comparison of the differences in tumor volume between control and treated groups. Dosing began when mean tumor volume reached approximately 124 mm^3.

[3] = system: RS4; 11 cells; test: Efficacy in RS4:11 xenograft model; type: in vivo, mouse; conditions: Compound A 5 mg/kg
Protocol: Preparation of Compound PBS formulations for dosinq RS4:11 efficacy study: The appropriate amounts of Compound 1 were weighed into a volumetric flask. 10 mL Dulbecc's Phosphate Buffered Saline (PBS) was added and formulations were then stirred until the compound dissolved entirely.
Formulation of Compound A in 30% w/v HP-β-CD
30% w/v HP-β-CD vehicle was prepared. 3 g HP-β-CD (Roquette Kleptose, parenteral grade) was weighed into a 10 mL volumetric flask and 8 mL WFI added and stirred (or sonicated) to dissolve. Once dissolved the volume was made up to 10 mL with WFI.
The appropriate amount of Compound A was weighed into a 10 mL volumetric flask. 8 mL of 30% w/v HP-β-CD vehicle was then added and the formulation stirred. 1M MSA was added dropwise until the pH was reduced to about 2. The formulation was then stirred until the compound dissolved entirely. The pH was measured and adjusted to pH 4, dropwise using 1M MSA or NaOH. […] The final pH was measured and recorded and the formulation filtered through a 0.22 uM filter prior to administration. […]
On specific day, for each treated group, calculate Inhibition value by formula: Inhibition %=(CG−TG)*100/(CG−1), in which “CG” means the geometric mean of rtv of the control group and “TG” means the Geometric Mean of Relative Tumor Volume (rtv) of the treated group. “CG” should use the corresponding control group of the treated group when calculated. […]

CC#CC(=O)N1CCC[C@H]1c1nc(-c2ccc(C(=O)Nc3ccccn3)cc2)c2c(N)nccn12 [acalabrutinib]
tumor growth inhibition (TGI) [1]: ~58%

CNC(=O)c1cccc(-c2ccc3c(N4CCOC[C@@H]4C)nc(N4CCOC[C@@H]4C)nc3n2)c1 [AZD2014, vistusertib]
anti-tumor activity, TGI [2]: 84%

CN(CCO)CC[C@H](CSc1ccccc1)Nc1ccc(S(=O)(=O)NC(=O)c2ccc(N3CCC([C@@H](O)c4ccccc4-c4ccc(Cl)cc4)CC3)cc2)cc1S(=O)(=O)C(F)(F)F [Compound A]
% Inhibition Day (47) [3]: >100% | % Regression Day(47) [3]: 90%

Reference: patent US20220273807A1, “CONJUGATES FOR USE IN METHODS OF TREATING CANCER” (AstraZeneca AB, priority 2018, published 2022)
